In US10208064B2, “Inhibitors of the renal outer medullary potassium channel” (MERCK SHARP & DOHME CORP., priority 2014, dated 2019):
pIC50: −log10 of the molar value.

Each molecule was assayed against ROMK (Kir1.1) channel (Homo sapiens (Human), UniProt P48048) (assay: Thallium Flux Assay).
Assay type: cell-based
Description: The following Thallium Flux Assay was performed on each of the final product compounds in the Examples.
A Thallium Flux Assay was performed on the compounds of the Examples. This assay has been described previously; see, e.g., PCT Published Application WO 2013/062900.

Sequence of ROMK (Kir1.1) channel (P48048 whole entry): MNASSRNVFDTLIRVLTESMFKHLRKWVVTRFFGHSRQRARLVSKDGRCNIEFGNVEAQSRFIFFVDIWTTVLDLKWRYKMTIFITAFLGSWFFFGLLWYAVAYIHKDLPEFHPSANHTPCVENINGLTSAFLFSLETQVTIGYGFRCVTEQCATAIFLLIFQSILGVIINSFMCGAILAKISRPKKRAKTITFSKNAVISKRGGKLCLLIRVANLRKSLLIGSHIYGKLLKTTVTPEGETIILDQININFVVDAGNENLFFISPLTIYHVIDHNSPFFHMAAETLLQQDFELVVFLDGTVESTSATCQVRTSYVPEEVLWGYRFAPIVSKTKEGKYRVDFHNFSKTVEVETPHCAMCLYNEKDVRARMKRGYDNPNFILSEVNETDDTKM

Row | SMILES | pIC50
1 | CC1=C(N2CCC3(CCN(C(CO)c4ccc5c(ccc6nnnn65)c4)CC3)C2=O)COC1=O (racemic) [Example 28, 8-(2-hydroxy-1-(tetrazolo[1,5-a]quinolin-7-yl)ethyl)-2-(4-methyl-5-oxo-2,5-dihydrofuran-3-yl)-2,8-diazaspiro[4.5]decan-1-one] | 7.74
2 | CC1=C(N2CCC3(CCN(C[C@H](O)c4ccc5c(c4Cl)Cn4nnnc4-5)CC3)C2=O)COC1=O [Example 1, (R)-8-(2-(6-chloro-5H-tetrazolo[5,1-a]isoindol-7-yl)-2-hydroxyethyl)-2-(4-methyl-5-oxo-2,5-dihydrofuran-3-yl)-2,8-diazaspiro[4.5]decan-1-one] | 7.51
3 | CC1=C(N2CCC3(CCN(C[C@@H](O)c4ccc5c(c4Cl)Cn4nnnc4-5)CC3)C2=O)COC1=O [Example 2, (S)-8-(2-(6-chloro-5H-tetrazolo[5,1-a]isoindol-7-yl)-2-hydroxyethyl)-2-(4-methyl-5-oxo-2,5-dihydrofuran-3-yl)-2,8-diazaspiro[4.5]decan-1-one] | 8.05
4 | CC1=C(N2CCC3(CCN(C[C@H](O)c4ccc5c(c4)CCc4nnnn4-5)CC3)C2=O)COC1=O [Example 7A, (R)-8-(2-(4,5-dihydrotetrazolo[1,5-a]quinolin-7-yl)-2-hydroxyethyl)-2-(4-methyl-5-oxo-2,5-dihydrofuran-3-yl)-2,8-diazaspiro[4.5]decan-1-one] | 7.47
5 | CC1=C(N2CCC3(CCN(C[C@@H](O)c4ccc5c(c4)CCc4nnnn4-5)CC3)C2=O)COC1=O [Example 7B, (S)-8-(2-(4,5-dihydrotetrazolo[1,5-a]quinolin-7-yl)-2-hydroxyethyl)-2-(4-methyl-5-oxo-2,5-dihydrofuran-3-yl)-2,8-diazaspiro[4.5]decan-1-one] | 7.42

Other lines, results leading:

Row | pIC50 | SMILES
6 | 7.46 | CC1=C(N2CC[C@@]3(CCN(C[C@H](O)c4ccc5c(c4)Cn4nnnc4-5)C[C@@H]3F)C2=O)COC1=O [Example 3, (5S,6R)-6-fluoro-8-((R)-2-hydroxy-2-(5H-tetrazolo[5,1-a]isoindol-7-yl)ethyl)-2-(4-methyl-5-oxo-2,5-dihydrofuran-3-yl)-2,8-diazaspiro[4.5]decan-1-one]
7 | 7.37 | CC1=C(N2CC[C@]3(CCN(C[C@H](O)c4ccc5c(c4)Cn4nnnc4-5)C[C@H]3F)C2=O)COC1=O [Example 4, (5R,6S)-6-fluoro-8-((R)-2-hydroxy-2-(5H-tetrazolo[5,1-a]isoindol-7-yl)ethyl)-2-(4-methyl-5-oxo-2,5-dihydrofuran-3-yl)-2,8-diazaspiro[4.5]decan-1-one]
8 | 6.95 | CC1=C(N2CC[C@@]3(CCN(C[C@@H](O)c4ccc5c(c4)Cn4nnnc4-5)C[C@@H]3F)C2=O)COC1=O [Example 5, (5S,6R)-6-fluoro-8-((S)-2-hydroxy-2-(5H-tetrazolo[5,1-a]isoindol-7-yl)ethyl)-2-(4-methyl-5-oxo-2,5-dihydrofuran-3-yl)-2,8-diazaspiro[4.5]decan-1-one]
9 | 7.40 | CC1=C(N2CC[C@]3(CCN(C[C@@H](O)c4ccc5c(c4)Cn4nnnc4-5)C[C@H]3F)C2=O)COC1=O [Example 6, (5R,6S)-6-fluoro-8-((S)-2-hydroxy-2-(5H-tetrazolo[5,1-a]isoindol-7-yl)ethyl)-2-(4-methyl-5-oxo-2,5-dihydrofuran-3-yl)-2,8-diazaspiro[4.5]decan-1-one]
10 | 7.89 | CC1=C(N2CCC3(CCN(C[C@H](O)c4ccc5c(c4)Cn4nnnc4-5)CC3)C2=O)COC1=O [Example 8, (R)-8-(2-hydroxy-2-(5H-tetrazolo[5,1-a]isoindol-7-yl)ethyl)-2-(4-methyl-5-oxo-2,5-dihydrofuran-3-yl)-2,8-diazaspiro[4.5]decan-1-one]
11 | 7.72 | CC1=C(N2CCC3(CCN(C[C@@H](O)c4ccc5c(c4)Cn4nnnc4-5)CC3)C2=O)COC1=O [Example 9, (S)-8-(2-hydroxy-2-(5H-tetrazolo[5,1-a]isoindol-7-yl)ethyl)-2-(4-methyl-5-oxo-2,5-dihydrofuran-3-yl)-2,8-diazaspiro[4.5]decan-1-one]
